# Reference: paper PMC4969531, “Enhanced Absorption Study of Ginsenoside Compound K (20-O-β-(D-Glucopyranosyl)-20(S)-protopanaxadiol) after Oral Administration of Fermented Red Ginseng Extract (HYFRG™) in Healthy Korean Volunteers and Rats” (Evidence-based Complementary and Alternative Medicine : eCAM, 2016)
# Columns and labels:
# [1] = Stability of compound K in human plasma (bench-top, refrigerator, freezer, freeze-thaw, extracted samples); type: in vitro ADME; details: n = 3; for Stability of extracted, autosampler (4°C), 20 h: extracted plasma sample; for Compound K in plasma, 4°C, 17 h / Compound K in plasma, room temperature, 17 h / Compound K in plasma, −80°C, 17 h / Freeze-thaw stability, three cycles, −80°C: human plasma
# Experimental: The LC-MS/MS method to determine compound K in human and rat plasma was validated and established in terms of specificity, sensitivity, linearity, accuracy, precision, recovery, matrix effect, and stability according to the bioanalytical method validation guidelines published by Korea Food and Drug Administration (KFDA) and USFDA [23, 24]. The specificity of the method towards endogenous plasma matrix substances was assessed in double blank human plasma (without compound K and IS). Double blank samples from six different lots of human blank plasma were tested for the presence of endogenous substances, which may interfere with compound K and IS using described above procedures and chromatographic/spectroscopic conditions. Then, the chromatograms obtained from the sample spiked with compound K at lower limit of quantitation (LLOQ) and IS and actual plasma samples from a volunteer after oral administration of compound K were compared with those obtained from blank samples. The calibration curve was constructed by plotting the peak area ratios (y) of compound K to IS against the spiked concentrations (x) of compound K. Linearity was assessed by weighted (1/x) least squares regression analysis. LLOQ was defined as the lowest concentration on the calibration curve. It should be quantified with an acceptable bias within ±20% and a CV no greater than 20%. The LLOQ was determined as the concentrations with a signal to noise (S/N) ratio of 10. The intra- and interday precision and accuracy assessments were performed on the same day (n = 5, at each concentration) and on three consecutive days at four concentrations ([…]). Precision is expressed as a coefficient of variance (CV) at each concentration. The accuracy of the assay was defined as a percentage of the measured concentration over the theoretical concentration. The acceptance criterion recommended by KFDA and USFDA for each back-calculated standard concentration is 20% deviation from the nominal for LLOQ and 15% for all others (KFDA 2013, USFDA 2013). The relative recovery, absolute matrix effect, and process efficiency were determined at three QC concentrations (3, 300, and 800 ng/mL, n = 3) of compound K and IS (500 ng/mL, n = 9). The relative recovery was measured by comparing the peak areas obtained from plasma samples spiked before extraction with those from plasma samples spiked after extraction. The absolute matrix effect was measured by comparing the peak response of plasma samples spiked after extraction with that of pure standards containing equivalent amounts of compound K and IS prepared in mobile phase. The process efficiency wasmeasured by comparing the peak response of plasma samples spiked before extraction with that of the pure standards containing equivalent amounts of compound K and IS prepared in mobile phase. […] The predicted concentrations of compound K at 3, 300, and 800 ng/mL samples differed by not more than 15% of the nominal concentrations in a set of stability tests, namely, in injector (20 h), bench-top (17 h), three repeated freeze-thaw cycles, and freezer stability at −80°C for 17 h. […] Although several analytical methods have been used to determine compound K concentrations in human plasma with LC-MS/MS using solid phase extraction or protein precipitation, we developed the fully validated analytical method optimized for our laboratory settings to meet both KFDA and USFDA guidelines for validating a bioanalytical method. Our analytical method was successfully used to evaluate the comparative pharmacokinetics of two red ginseng HYFRG or RG extracts in Koreans.
# [2] = Stability of compound K working stock solution in methanol; type: physicochemical; details: n = 3
# Experimental: Stock solutions of compound K and IS were prepared separately by dissolving the accurately weighed compounds in methanol for a final concentration of 1000 μg/mL. The prepared stock solutions were stored in −80°C when not in use. Working solutions of compound K were prepared by serial dilution of the stock solution in methanol. Calibration standards were prepared by spiking 10 μL of the appropriate standard solutions to 190 μL of blank plasma for concentrations of 1, 5, 10, 50, 100, 500, and 1000 ng/mL. QC samples were prepared in the same manner as the calibration standards, for low, middle, and high concentrations of 3, 300, and 800 ng/mL. IS working solution (5 μg/mL) for routine use was freshly prepared by diluting IS stock solution in methanol. The standard and QC samples were extracted on each analysis run using the same procedure described below. […] The specificity of the method towards endogenous plasma matrix substances was assessed in double blank human plasma (without compound K and IS). […] Then, the chromatograms obtained from the sample spiked with compound K at lower limit of quantitation (LLOQ) and IS and actual plasma samples from a volunteer after oral administration of compound K were compared with those obtained from blank samples. The calibration curve was constructed by plotting the peak area ratios (y) of compound K to IS against the spiked concentrations (x) of compound K. Linearity was assessed by weighted (1/x) least squares regression analysis. […] It should be quantified with an acceptable bias within ±20% and a CV no greater than 20%. The LLOQ was determined as the concentrations with a signal to noise (S/N) ratio of 10. […] Precision is expressed as a coefficient of variance (CV) at each concentration. The accuracy of the assay was defined as a percentage of the measured concentration over the theoretical concentration. The acceptance criterion recommended by KFDA and USFDA for each back-calculated standard concentration is 20% deviation from the nominal for LLOQ and 15% for all others (KFDA 2013, USFDA 2013). […]
structure (smiles),measurement,setting,value
"CC(C)=CCCC(C)(OC1OC(CO)C(O)C(O)C1O)C1CCC2(C)C1C(O)CC1C3(C)CCC(O)C(C)(C)C3CCC12C [Compound K, 20-O-β-(D-glucopyranosyl)-20(S)-protopanaxadiol]","Stability of extracted, autosampler (4°C), 20 h",[1]; nominal 3 ng/mL,110.43 ± 12.89%
same,"Compound K in plasma, 4°C, 17 h",[1]; nominal 3 ng/mL,112.11 ± 5.08%
same,"Compound K in plasma, room temperature, 17 h",[1]; nominal 3 ng/mL,110.12 ± 3.01%
same,"Compound K in plasma, −80°C, 17 h",[1]; nominal 3 ng/mL,115.04 ± 2.66%
same,"Freeze-thaw stability, three cycles, −80°C",[1]; nominal 3 ng/mL,109.09 ± 7.07%
same,"Stability of extracted, autosampler (4°C), 20 h",[1]; nominal 300 ng/mL,102.96 ± 4.83%
same,"Compound K in plasma, 4°C, 17 h",[1]; nominal 300 ng/mL,110.62 ± 2.31%
same,"Compound K in plasma, room temperature, 17 h",[1]; nominal 300 ng/mL,106.83 ± 3.20%
same,"Compound K in plasma, −80°C, 17 h",[1]; nominal 300 ng/mL,108.30 ± 1.60%
same,"Freeze-thaw stability, three cycles, −80°C",[1]; nominal 300 ng/mL,109.70 ± 2.38%
same,"Stability of extracted, autosampler (4°C), 20 h",[1]; nominal 800 ng/mL,103.46 ± 3.48%
same,"Compound K in plasma, 4°C, 17 h",[1]; nominal 800 ng/mL,107.40 ± 2.45%
same,"Compound K in plasma, room temperature, 17 h",[1]; nominal 800 ng/mL,107.54 ± 0.20%
same,"Compound K in plasma, −80°C, 17 h",[1]; nominal 800 ng/mL,104.95 ± 1.42%
same,"Freeze-thaw stability, three cycles, −80°C",[1]; nominal 800 ng/mL,106.13 ± 5.46%
same,"Working stock solution stability, room temperature, 6 h",[2]; nominal 3 ng/mL,89.08 ± 3.89%
same,"Working stock solution stability, room temperature, 6 h",[2]; nominal 300 ng/mL,89.11 ± 7.13%
same,"Working stock solution stability, room temperature, 6 h",[2]; nominal 800 ng/mL,96.13 ± 7.43%
